Earlier results, collected in patent publication US6387949B1, “Substituted urea compounds useful in pain management” (AstraZeneca Canada Inc., priority 1998, dated 2002).

Assays:
[1] = target: δ receptor (Homo sapiens, UniProt P41143); settings: background statement
[2] = background statement

Sequence of δ receptor (P41143 whole entry): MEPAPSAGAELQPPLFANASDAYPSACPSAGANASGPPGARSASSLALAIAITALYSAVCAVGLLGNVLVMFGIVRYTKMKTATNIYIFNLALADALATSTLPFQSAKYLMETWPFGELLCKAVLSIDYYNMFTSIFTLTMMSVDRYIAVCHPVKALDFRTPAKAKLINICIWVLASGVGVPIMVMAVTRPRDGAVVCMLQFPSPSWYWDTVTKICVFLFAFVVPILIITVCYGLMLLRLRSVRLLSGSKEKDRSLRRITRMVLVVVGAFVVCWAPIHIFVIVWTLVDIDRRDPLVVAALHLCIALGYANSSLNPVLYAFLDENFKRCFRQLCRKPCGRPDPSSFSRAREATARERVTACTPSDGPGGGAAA

Oc1ccc2c3c1O[C@H]1c4[nH]c5ccccc5c4C[C@@]4(O)[C@@H](C2)N(CC2CC2)CC[C@]314 [naltrindole]
selectivity for the δ receptor vs. μ receptor binding [1]: < 10 fold | analgesic activity [2]: no analgesic activity
